Measured values published in patent US9340590B2 (priority 2011, dated 2016).
Where two headings read alike, the source gives them in different places. Positions of bridges follow the written chain, without caps; N, C: chain ends. Residues, ends and D or L forms follow the SMILES beside them.

Target: hNav1.7 (Homo sapiens, UniProt Q15858)
Assay: cell-based
Assay type: cell-based
Settings: read-out: IWQ Use Nav1.7
[1] = IonWorks Quattro, clamped to −110 mV, depolarized to −10 mV, 5 min after compound, n=2

hNav1.7, sequence (Q15858 whole entry, looked up): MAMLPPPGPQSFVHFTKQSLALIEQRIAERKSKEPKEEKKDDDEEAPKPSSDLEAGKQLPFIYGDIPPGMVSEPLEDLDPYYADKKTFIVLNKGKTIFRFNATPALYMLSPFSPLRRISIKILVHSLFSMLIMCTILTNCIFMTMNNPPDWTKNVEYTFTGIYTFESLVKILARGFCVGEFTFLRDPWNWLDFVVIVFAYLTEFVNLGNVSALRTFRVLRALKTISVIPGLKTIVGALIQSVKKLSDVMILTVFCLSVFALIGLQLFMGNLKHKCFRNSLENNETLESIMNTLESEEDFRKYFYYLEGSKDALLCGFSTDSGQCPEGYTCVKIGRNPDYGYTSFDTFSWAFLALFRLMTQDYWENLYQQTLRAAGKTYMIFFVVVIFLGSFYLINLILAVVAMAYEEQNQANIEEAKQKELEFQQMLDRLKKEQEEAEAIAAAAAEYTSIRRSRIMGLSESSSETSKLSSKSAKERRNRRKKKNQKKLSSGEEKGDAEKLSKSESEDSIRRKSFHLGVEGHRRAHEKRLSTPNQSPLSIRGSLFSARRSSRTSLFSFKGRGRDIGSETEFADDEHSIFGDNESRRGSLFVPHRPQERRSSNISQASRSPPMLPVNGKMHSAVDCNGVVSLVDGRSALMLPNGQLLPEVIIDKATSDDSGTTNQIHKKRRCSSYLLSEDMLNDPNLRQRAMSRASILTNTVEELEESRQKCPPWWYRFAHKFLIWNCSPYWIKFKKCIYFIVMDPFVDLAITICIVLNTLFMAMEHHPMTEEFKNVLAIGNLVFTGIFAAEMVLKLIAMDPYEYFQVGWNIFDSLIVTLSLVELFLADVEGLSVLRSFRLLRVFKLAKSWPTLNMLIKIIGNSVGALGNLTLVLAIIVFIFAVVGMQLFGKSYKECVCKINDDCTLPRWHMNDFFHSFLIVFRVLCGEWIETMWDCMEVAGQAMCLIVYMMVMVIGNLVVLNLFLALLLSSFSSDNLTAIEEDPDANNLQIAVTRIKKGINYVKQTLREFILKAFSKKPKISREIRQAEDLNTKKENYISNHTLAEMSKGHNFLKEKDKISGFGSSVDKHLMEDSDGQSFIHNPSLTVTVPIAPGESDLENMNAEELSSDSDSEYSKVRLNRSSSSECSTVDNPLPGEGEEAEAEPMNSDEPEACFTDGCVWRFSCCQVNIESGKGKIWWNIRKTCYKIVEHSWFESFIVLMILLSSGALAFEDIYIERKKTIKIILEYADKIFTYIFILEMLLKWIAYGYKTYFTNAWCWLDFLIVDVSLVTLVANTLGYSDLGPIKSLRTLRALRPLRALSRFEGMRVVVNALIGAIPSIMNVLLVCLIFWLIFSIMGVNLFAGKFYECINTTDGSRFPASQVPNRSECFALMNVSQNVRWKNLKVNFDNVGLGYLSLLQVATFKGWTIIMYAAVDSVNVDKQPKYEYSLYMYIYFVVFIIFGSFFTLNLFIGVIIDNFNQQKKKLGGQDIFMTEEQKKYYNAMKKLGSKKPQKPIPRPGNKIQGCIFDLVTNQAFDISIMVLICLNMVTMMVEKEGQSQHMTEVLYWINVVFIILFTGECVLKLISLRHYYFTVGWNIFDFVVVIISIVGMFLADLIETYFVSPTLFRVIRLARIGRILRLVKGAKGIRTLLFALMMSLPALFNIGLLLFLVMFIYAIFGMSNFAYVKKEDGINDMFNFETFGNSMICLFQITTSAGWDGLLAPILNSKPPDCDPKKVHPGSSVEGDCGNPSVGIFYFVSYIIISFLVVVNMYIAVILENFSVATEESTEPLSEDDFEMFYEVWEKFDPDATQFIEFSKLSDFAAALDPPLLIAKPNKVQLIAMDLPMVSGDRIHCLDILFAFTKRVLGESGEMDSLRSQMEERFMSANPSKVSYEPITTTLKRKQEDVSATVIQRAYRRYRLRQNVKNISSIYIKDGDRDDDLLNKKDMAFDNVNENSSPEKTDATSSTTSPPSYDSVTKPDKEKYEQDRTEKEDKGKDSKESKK

Structure (SMILES) | IC50 (IonWorks Quattro, Use) [nM] | also measured
CC[C@H](C)[C@@H]1NC(=O)[C@@H]2CSSC[C@@H]3NC(=O)[C@H](C(C)C)NC(=O)[C@H](CC(C)C)NC(=O)[C@H](CC(N)=O)NC(=O)[C@@H]4CCCN4C(=O)[C@H](CCCNC(=N)N)NC(=O)[C@H](CSSC[C@H](NC(=O)[C@@H](N)CCCCN)C(=O)N[C@@H](CC(C)C)C(=O)NCC(=O)N[C@@H](Cc4ccccc4)C(=O)N[C@@H](CCSC)C(=O)N[C@@H](CCCNC(=N)N)C(=O)N[C@@H](CCCCN)C(=O)N2)NC(=O)[C@H](CSSC[C@@H](C(=O)N[C@@H](CCCCN)C(=O)N[C@@H](Cc2ccc(O)cc2)C(=O)N[C@H](C(=O)N[C@@H](Cc2ccccc2)C(N)=O)C(C)C)NC(=O)[C@H](Cc2c[nH]c4ccccc24)NC(=O)[C@H](CCCCN)NC(=O)[C@H](Cc2c[nH]cn2)NC(=O)[C@H]([C@@H](C)O)NC(=O)[C@H](CCCNC(=N)N)NC(=O)[C@H](CO)NC3=O)NC(=O)[C@H](CCCCN)NC(=O)[C@H](CC(=O)O)NC(=O)[C@H](CC(N)=O)NC(=O)[C@H](CC(=O)O)NC(=O)[C@@H]2CCCN2C1=O [SEQ ID NO: 37] (H-KCLGFMRKCIPDNDKCCRPNLVCSRTHKWCKYVF-NH2; disulfide 2-17, 9-23, 16-30) | – | IC50 [1]: 150 nM
CC[C@H](C)[C@@H]1NC(=O)[C@@H]2CSSC[C@@H]3NC(=O)[C@H](C(C)C)NC(=O)[C@H](CC(C)C)NC(=O)[C@H](CC(N)=O)NC(=O)[C@@H]4CCCN4C(=O)[C@H](CCCNC(=N)N)NC(=O)[C@H](CSSC[C@H](NC(=O)[C@@H](N)CC(=O)O)C(=O)N[C@@H](CC(C)C)C(=O)NCC(=O)N[C@@H](Cc4ccccc4)C(=O)N[C@@H](CCSC)C(=O)N[C@@H](CCCNC(=N)N)C(=O)N[C@@H](CCCCN)C(=O)N2)NC(=O)[C@H](CSSC[C@@H](C(=O)N[C@@H](CCCCN)C(=O)N[C@@H](Cc2ccc(O)cc2)C(=O)N[C@H](C(=O)N[C@@H](Cc2ccccc2)C(N)=O)C(C)C)NC(=O)[C@H](Cc2c[nH]c4ccccc24)NC(=O)[C@H](CCC(=O)O)NC(=O)[C@H](Cc2c[nH]cn2)NC(=O)[C@H]([C@@H](C)O)NC(=O)[C@H](CCCNC(=N)N)NC(=O)[C@H](CO)NC3=O)NC(=O)[C@H](CCCCN)NC(=O)[C@H](CC(=O)O)NC(=O)[C@H](CC(N)=O)NC(=O)[C@H](CC(=O)O)NC(=O)[C@@H]2CCCN2C1=O [SEQ ID NO: 153, [Glu28]GpTx-1(1-34)] (H-DCLGFMRKCIPDNDKCCRPNLVCSRTHEWCKYVF-NH2; disulfide 2-17, 9-23, 16-30) | – | IC50 (Table 23, IonWorks Quattro, use, […]): 340 nM
CSCC[C@@H]1NC(=O)[C@H](Cc2ccccc2)NC(=O)CNC(=O)[C@H](CC(C)C)NC(=O)[C@@H](NC(=O)[C@@H](N)CC(=O)O)CSSC[C@@H]2NC(=O)[C@@H]3CSSC[C@@H](C(=O)N[C@@H](CCCCN)C(=O)N[C@@H](Cc4ccc(O)cc4)C(=O)N[C@H](C(=O)N[C@@H](Cc4ccccc4)C(N)=O)C(C)C)NC(=O)[C@H](Cc4c[nH]c5ccccc45)NC(=O)[C@H](CCCCN)NC(=O)[C@H](Cc4c[nH]cn4)NC(=O)[C@H]([C@@H](C)O)NC(=O)[C@H](CCCNC(=N)N)NC(=O)[C@H](CO)NC(=O)[C@H](CSSC[C@H](NC(=O)[C@H](CCCCN)NC(=O)[C@H](CCCNC(=N)N)NC1=O)C(=O)N[C@@H](C)C(=O)N1CCC[C@H]1C(=O)N[C@@H](CC(=O)O)C(=O)N[C@@H](CC(N)=O)C(=O)N[C@@H](CC(=O)O)C(=O)N[C@@H](CCCCN)C(=O)N3)NC(=O)[C@H](C(C)C)NC(=O)[C@H](CC(C)C)NC(=O)[C@H](CC(N)=O)NC(=O)[C@@H]1CCCN1C(=O)[C@H](CCCNC(=N)N)NC2=O [compound 45] (H-DCLGFMRKCAPDNDKCCRPNLVCSRTHKWCKYVF-NH2; disulfide 2-17, 9-23, 16-30) | 210 | –
CC[C@H](C)[C@@H]1NC(=O)[C@@H]2CSSC[C@@H]3NC(=O)[C@H](C(C)C)NC(=O)[C@H](CC(C)C)NC(=O)[C@H](CC(N)=O)NC(=O)[C@@H]4CCCN4C(=O)[C@H](CCCNC(=N)N)NC(=O)[C@H](CSSC[C@H](NC(=O)[C@@H](N)CC(=O)O)C(=O)N[C@@H](CC(C)C)C(=O)NCC(=O)N[C@@H](Cc4ccccc4)C(=O)N[C@@H](CCSC)C(=O)N[C@@H](CCCNC(=N)N)C(=O)N[C@@H](CCCCN)C(=O)N2)NC(=O)[C@H](CSSC[C@@H](C(=O)N[C@@H](CCCCN)C(=O)N[C@@H](Cc2ccc(O)cc2)C(=O)N[C@H](C(=O)N[C@@H](Cc2ccccc2)C(N)=O)C(C)C)NC(=O)[C@H](Cc2c[nH]c4ccccc24)NC(=O)[C@H](CCCCN)NC(=O)[C@H](Cc2c[nH]cn2)NC(=O)[C@H]([C@@H](C)O)NC(=O)[C@H](CCCNC(=N)N)NC(=O)[C@H](C)NC3=O)NC(=O)[C@H](CCCCN)NC(=O)[C@H](CC(=O)O)NC(=O)[C@H](CC(N)=O)NC(=O)[C@H](CC(=O)O)NC(=O)[C@@H]2CCCN2C1=O [compound 142] (H-DCLGFMRKCIPDNDKCCRPNLVCARTHKWCKYVF-NH2; disulfide 2-17, 9-23, 16-30) | 470 | –
CC[C@H](C)[C@@H]1NC(=O)[C@@H]2CSSC[C@@H]3NC(=O)[C@H](C(C)C)NC(=O)[C@H](CC(C)C)NC(=O)[C@H](CC(N)=O)NC(=O)[C@@H]4CCCN4C(=O)[C@H](CCCNC(=N)N)NC(=O)[C@H](CSSC[C@H](NC(=O)[C@@H](N)CC(=O)O)C(=O)N[C@@H](CC(C)C)C(=O)NCC(=O)N[C@@H](Cc4ccccc4)C(=O)N[C@@H](CCSC)C(=O)N[C@@H](CCCNC(=N)N)C(=O)N[C@@H](CCCCN)C(=O)N2)NC(=O)[C@H](CSSC[C@@H](C(=O)N[C@@H](CCCCN)C(=O)N[C@@H](Cc2ccc(O)cc2)C(=O)N[C@H](C(=O)N[C@@H](Cc2ccccc2)C(N)=O)C(C)C)NC(=O)[C@H](Cc2c[nH]c4ccccc24)NC(=O)[C@H](CCCCN)NC(=O)[C@H](Cc2c[nH]cn2)NC(=O)[C@H]([C@@H](C)O)NC(=O)[C@H](CCCNC(=N)N)NC(=O)[C@H](CO)NC3=O)NC(=O)[C@H](CCCCN)NC(=O)[C@H](CC(=O)O)NC(=O)[C@H](CC(N)=O)NC(=O)[C@H](CC(=O)O)NC(=O)[C@H](CCC(=O)O)NC1=O [SEQ ID NO: 147, [Glu11]GpTx-1] (H-DCLGFMRKCIEDNDKCCRPNLVCSRTHKWCKYVF-NH2; disulfide 2-17, 9-23, 16-30) | 220 | –
CSCC[C@@H]1NC(=O)[C@H](Cc2ccccc2)NC(=O)CNC(=O)[C@H](CC(C)C)NC(=O)[C@@H](NC(=O)[C@@H](N)CC(=O)O)CSSC[C@@H]2NC(=O)[C@@H]3CSSC[C@@H](C(=O)N[C@@H](CCCCN)C(=O)N[C@@H](Cc4ccc(O)cc4)C(=O)N[C@H](C(=O)N[C@@H](Cc4ccccc4)C(N)=O)C(C)C)NC(=O)[C@H](Cc4c[nH]c5ccccc45)NC(=O)[C@H](CCCCN)NC(=O)[C@H](Cc4c[nH]cn4)NC(=O)[C@H]([C@@H](C)O)NC(=O)[C@H](CCCNC(=N)N)NC(=O)[C@H](CO)NC(=O)[C@H](CSSC[C@H](NC(=O)[C@H](CCCCN)NC(=O)[C@H](CCCNC(=N)N)NC1=O)C(=O)N[C@@H](CC(=O)O)C(=O)N1CCC[C@H]1C(=O)N[C@@H](CC(=O)O)C(=O)N[C@@H](CC(N)=O)C(=O)N[C@@H](CC(=O)O)C(=O)N[C@@H](CCCCN)C(=O)N3)NC(=O)[C@H](C(C)C)NC(=O)[C@H](CC(C)C)NC(=O)[C@H](CC(N)=O)NC(=O)[C@@H]1CCCN1C(=O)[C@H](CCCNC(=N)N)NC2=O [SEQ ID NO: 119, [Asp10]GpTx-1] (H-DCLGFMRKCDPDNDKCCRPNLVCSRTHKWCKYVF-NH2; disulfide 2-17, 9-23, 16-30) | – | IC50: 220 nM
CSCC[C@@H]1NC(=O)[C@H](Cc2ccccc2)NC(=O)CNC(=O)[C@H](CC(C)C)NC(=O)[C@@H](NC(=O)[C@@H](N)CC(=O)O)CSSC[C@@H]2NC(=O)[C@@H]3CSSC[C@@H](C(=O)N[C@@H](CCCCN)C(=O)N[C@@H](Cc4ccc(O)cc4)C(=O)N[C@H](C(=O)N[C@@H](Cc4ccccc4)C(N)=O)C(C)C)NC(=O)[C@H](Cc4c[nH]c5ccccc45)NC(=O)[C@H](CCCCN)NC(=O)[C@H](Cc4c[nH]cn4)NC(=O)[C@H]([C@@H](C)O)NC(=O)[C@H](CCCNC(=N)N)NC(=O)[C@H](CO)NC(=O)[C@H](CSSC[C@H](NC(=O)[C@H](CCCCN)NC(=O)[C@H](CCCNC(=N)N)NC1=O)C(=O)N[C@@H]([C@@H](C)O)C(=O)N1CCC[C@H]1C(=O)N[C@@H](CC(=O)O)C(=O)N[C@@H](CC(N)=O)C(=O)N[C@@H](CC(=O)O)C(=O)N[C@@H](CCCCN)C(=O)N3)NC(=O)[C@H](C(C)C)NC(=O)[C@H](CC(C)C)NC(=O)[C@H](CC(N)=O)NC(=O)[C@@H]1CCCN1C(=O)[C@H](CCCNC(=N)N)NC2=O [compound 309] (H-DCLGFMRKCTPDNDKCCRPNLVCSRTHKWCKYVF-NH2; disulfide 2-17, 9-23, 16-30) | 100 | –
CC[C@H](C)[C@@H]1NC(=O)[C@@H]2CSSC[C@@H]3NC(=O)[C@H](C(C)C)NC(=O)[C@H](CC(C)C)NC(=O)[C@H](CC(N)=O)NC(=O)[C@@H]4CCCN4C(=O)[C@H](CCCNC(=N)N)NC(=O)[C@H](CSSC[C@H](NC(=O)[C@@H](N)CC(=O)O)C(=O)N[C@@H](CC(C)C)C(=O)NCC(=O)N[C@@H](Cc4ccccc4)C(=O)N[C@@H](CCC(=O)O)C(=O)N[C@@H](CCCNC(=N)N)C(=O)N[C@@H](CCCCN)C(=O)N2)NC(=O)[C@H](CSSC[C@@H](C(=O)N[C@@H](CCCCN)C(=O)N[C@@H](Cc2ccc(O)cc2)C(=O)N[C@H](C(=O)N[C@@H](Cc2ccccc2)C(N)=O)C(C)C)NC(=O)[C@H](Cc2c[nH]c4ccccc24)NC(=O)[C@H](CCCCN)NC(=O)[C@H](Cc2c[nH]cn2)NC(=O)[C@H]([C@@H](C)O)NC(=O)[C@H](CCCNC(=N)N)NC(=O)[C@H](CO)NC3=O)NC(=O)[C@H](CCCCN)NC(=O)[C@H](CC(=O)O)NC(=O)[C@H](CC(N)=O)NC(=O)[C@H](CC(=O)O)NC(=O)[C@@H]2CCCN2C1=O [SEQ ID NO: 144] (H-DCLGFERKCIPDNDKCCRPNLVCSRTHKWCKYVF-NH2; disulfide 2-17, 9-23, 16-30) | – | IC50 [1]: 3510 nM
